Where two headings read alike, the source gives them in different places.
Key:
[1] = tested on: persistent pulmonary hypertension of the newborn (PPHN); assay type: in vivo, human
Method: First subject. Through compassionate use, nitric oxide was administered to an infant suffering from persistent pulmonary hypertension and congenital heart disease. As a result of prolonged ventilation, absence of a preductal arterial blood sampling site, and the existence of the atrial-ventricular (AV) canal, the patient was not included in the PPHN study mentioned above.
The patient was a 3225 gm, full term person who had been treated with extracorporeal membrane oxygenation (ECMO) because of the severity of their congenital heart disease and profound hypoxemia. They had been taken off ECMO and was being maintained intubated and ventilated in the newborn intensive care unit. They subsequently became progressively hypoxemic, as reflected in their post-ductal pulse oximetry (POX) values. By the time they were taken to the catheterization laboratory to confirm the existence of the A-V canal and to determine if some emergent cardiac surgery was needed, they were receiving maximal medical and ventilatory life support and remained dangerously hypoxemic. Under these circumstances, we were granted consent to treat the patient with nitric oxide.
Upon arrival to the catheterization laboratory, the patient was extremely cyanotic. They were treated with fentanyl, oxygen, hyperventilation and intravenous fluid boluses to stabilize them prior to administering NO.
We utilized a regulator to step-down the pressure of the NO into a blender, which allowed us to adjust the relative amounts of the 800 ppm NO/N2 and 100% N2 supplies. Treating the patient with pure oxygen, we increased the flow of N2 through a flow regulator into the inspiratory circuit of the breathing cicuit until the FI O2 was 0.9. This provided a 1:10 dilution of the nitrogen gas. We then used the blender to adjust the relative amounts of N2 and […] to provide 0 to 80 ppm of NO.

[2] = tested on: methacholine bronchoconstriction; assay: Dose-response of intermittent NO inhalation during methacholine infusion; assay type: in vivo, Hartley strain guinea pigs
Method: Male Hartley strain guinea pigs (300-440g body wt) were anesthetized with α-chloralose (50 mg/kg) and urethane (500 mg/kg) (Drazen et al., J. Appl. Physiol. 48:613-618, 1980). A tracheostomy was performed, and the animals were intubated with a tubing adaptor (ID 1.65 mm) and ventilated with a small animal ventilator (Harvard Apparatus, a division of Ealing Scientific, Natick, Mass.) at 8 ml/kg and 60 breaths/min. A jugular vein was cannulated for intravenous administration of drugs. The chest was opened by bilateral excision of a portion of the ribs anteriorly so that the lungs were exposed to atmospheric pressure (Shore and Drazen, J. Appl. Physiol. 67:2504-2511, 1989). A positive end expiratory pressure of 3-4 cmH2 O was provided.
Guinea pigs were then placed inside a plethysmograph (Amdur and Mead, Am. J. Physiol. 192:363-368, 1958), that was connected to a large reservoir containing copper mesh to maintain the plethysmograph isothermal. Plethysmograph pressure was measured with a differential pressure transducer (Celesco, Canoga Park, Calif.); the opposite side of this transducer was connected to a similar reservoir. Pressure at the airway opening was measured from a side tap in the tracheal canula. Transpulmonary pressure was measured with a differential pressure transducer (Celesco) as the difference between airway opening pressure and the pressure inside the plethysmograph. Flow was obtained by electrical differentiation of the volume (plethysmograph pressure) signal. Tidal volume was measured by recording the pressure changes in the body plethysmograph. Volume, flow, and transpulmonary pressure signals were recorded on a strip chart (General Scanning, Watertown, Mass.). Pulmonary resistance and dynamic compliance were calculated by a computer program according to the method of von Neergard and Wirz (Z. Klin. Med. 105:35-50, 1927; Z. Klin. Med. 105:52-82, 1927).
The apparatus and conditions used are diagrammed in FIG. 7. The inspired gas was a precise mixture of nitrogen and oxygen blended via a Y piece tube and immediately diluted with nitric oxide (NO) to produce the correct inspired concentration in a 5 liter gas mixture bag. With volumetrically calibrated flowmeters, varying quantities of NO mixed with N2 were substituted for pure N2 to obtain the desired No concentration at an inspired oxygen concentration (FIO2) of 0.30-0.32. The total inflow gas rate was maintained at 2.5 l/min. The gas mixture was then sent via a 3 cm ID tube filled with 90 ml of soda lime to scavenge nitrogen dioxide (Stavert and Lehnert, Inhal. Toxicol. 2:53-67, 1990), then through a filter before the ventilator. Just after the ventilator inflow tube, a vacuum was adjusted to maintain the gas mixture bag nearly empty and continuously drive fresh gas into the ventilator circuit. The expiratory gas from the ventilator was scavenged with a vacuum and set up to maintain a positive end expiratory pressure of 3-4 cm H2 O. NO was obtained from Air Products and Chemicals, Inc. (Allentown, Pa.) as a mixture of 1,034 ppm NO in pure nitrogen. A chemiluminescence NO/NOx analysis (Fontijin et al., Anal. Chem. 42:575-579, 1970) was performed before and after the soda lime filled tube, and just before the inspiratory valve of the ventilator (see FIG. 7) to assess the nitrogen dioxide concentration and adjust the flowmeters to provide the different levels of NO concentration.
ii. Dose-response study of intermittent NO inhalation during methacholine infusion. After baseline measurements, the same guinea pigs were given an intravenous infusion of a potent bronchoconstrictor, methacholine, at a rate of 2.5-7.5 μg/kg/min in order to reach a medium level of bronchoconstriction (3 to 4 fold the baseline lung resistance). After a stable period, each animal was ventilated with a series of gas mixtures of 5, 10, 25, 50, 100 and 300 ppm NO for 10 minutes at constant FIO2 (0.30-0.32). […]

[3] = NO 80 ppm, restarted after OFF #1
[4] = NO-containing gas mixtures (FIGS. 9-12)

**Q.** With `[N]=O` [NO, nitric oxide] as the molecule, how does the “arterial saturation, pulse oximetry values and arterial partial pressure of oxygen” value ([1]; NO 20-80 ppm) read?
**A.** The value was “modest increase in arterial saturation, pulse oximetry values, and arterial partial pressure of oxygen”.

**Q.** What about the “effect on systemic blood pressure” value ([1]; NO 20-80 ppm) of the same molecule?
**A.** Its value is “no adverse effect on systemic blood pressure”.

**Q.** And the “O2 SAT, PA” value ([1]; NO 20 ppm)?
**A.** Its value is 70%.

**Q.** And the “O2 SAT, POX (pulse oximeter), postductal” value ([1]; NO 20 ppm)?
**A.** Its value is 91%.

**Q.** And the “O2 SAT, RA” value ([1]; NO 20 ppm)?
**A.** The value was 67%.

**Q.** And the “O2 SAT, postductal ART” value ([1]; NO 20 ppm)?
**A.** The value was 85%.

**Q.** What about the “mean pressure, ART” value ([1]; NO 20 ppm) of the same molecule?
**A.** The value was 45 mmHg.

**Q.** What about the “mean pressure, PA” value ([1]; NO 20 ppm) of the same molecule?
**A.** Its value is 50 mmHg.

**Q.** And the “mean pressure, RA” value ([1]; NO 20 ppm)?
**A.** The value was 5 mmHg.

**Q.** And the “postductal arterial PO2, ART” value ([1]; NO 20 ppm)?
**A.** The value was 46 mmHg.

**Q.** What about the “O2 SAT, PA” value ([1]; NO 40 ppm) of the same molecule?
**A.** Its value is 74%.

**Q.** And the “O2 SAT, POX (pulse oximeter), postductal” value ([1]; NO 40 ppm)?
**A.** Its value is 93%.

**Q.** And the “O2 SAT, RA” value ([1]; NO 40 ppm)?
**A.** Its value is 72%.

**Q.** What about the “O2 SAT, postductal ART” value ([1]; NO 40 ppm) of the same molecule?
**A.** The value was 74%.

**Q.** And the “mean pressure, ART” value ([1]; NO 40 ppm)?
**A.** Its value is 43 mmHg.

**Q.** What about the “mean pressure, PA” value ([1]; NO 40 ppm) of the same molecule?
**A.** The value was 52 mmHg.

**Q.** And the “mean pressure, RA” value ([1]; NO 40 ppm)?
**A.** Its value is 4 mmHg.

**Q.** And the “postductal arterial PO2, ART” value ([1]; NO 40 ppm)?
**A.** The value was 50 mmHg.

**Q.** And the “O2 SAT, PA” value ([1]; NO 80 ppm)?
**A.** Its value is 75%.

**Q.** What about the “O2 SAT, RA” value ([1]; NO 80 ppm) of the same molecule?
**A.** The value was 74%.

**Q.** And the “mean pressure, ART” value ([1]; NO 80 ppm)?
**A.** Its value is 47 mmHg.

**Q.** And the “mean pressure, PA” value ([1]; NO 80 ppm)?
**A.** The value was 53 mmHg.

**Q.** And the “mean pressure, RA” value ([1]; NO 80 ppm)?
**A.** The value was 5 mmHg.

**Q.** What about the “O2 SAT, POX (pulse oximeter), postductal” value ([1]; NO 80 ppm, first) of the same molecule?
**A.** Its value is 94%.

**Q.** And the “O2 SAT, postductal ART” value ([1]; NO 80 ppm, first)?
**A.** Its value is 88%.

**Q.** What about the “postductal arterial PO2, ART” value ([1]; NO 80 ppm, first) of the same molecule?
**A.** The value was 51 mmHg.

**Q.** What about the “O2 SAT, POX (pulse oximeter), postductal” value [1, 3] of the same molecule?
**A.** Its value is 90%.

**Q.** And the “O2 SAT, postductal ART” value [1, 3]?
**A.** Its value is 85%.

**Q.** And the “postductal arterial PO2, ART” value [1, 3]?
**A.** The value was 48 mmHg.

**Q.** What about the “arterial saturation and oxygen gas tension on discontinuation” value ([1]; after nitric oxide was discontinued) of the same molecule?
**A.** Its value is “precipitously dropped”.

**Q.** And the “oxygen saturation and blood gas tension on restart” value ([1]; nitric oxide restarted)?
**A.** The value was “succeeded in improving the oxygen saturation and blood gas tension”.

**Q.** What about the gas exchange ([1]; pulmonary hypertension and congenital heart disease) of the same molecule?
**A.** The gas exchange was “improving gas exchange”.

**Q.** What about the “oxygenation level on second weaning” value ([1]; subsequent attempt to wean off nitric oxide) of the same molecule?
**A.** Its value is “deteriorated to dangerously low levels”.

**Q.** What about the bronchodilation ([2]; 5 ppm NO) of the same molecule?
**A.** Its bronchodilation is “produced bronchodilation”.

**Q.** And the airway resistance ([2]; 100 or 300 ppm NO)?
**A.** The airway resistance was “greater and more rapid reduction of airway resistance”.

**Q.** And the “reversal of methacholine bronchoconstriction” value ([2]; 300 ppm NO)?
**A.** Its value is “Complete reversal of methacholine bronchoconstriction”.

**Q.** And the lung compliance [2, 4]?
**A.** Its lung compliance is “increase of lung compliance”.

**Q.** And the lung resistance [2, 4]?
**A.** Its lung resistance is “consistent, rapid and profound reduction of lung resistance”.

**Q.** And the onset of dilation ([2]; after inhalation)?
**A.** The onset of dilation was “within a few seconds”.

**Q.** What about the “reversal of methacholine bronchoconstriction” value ([2]; nitric oxide inhalation) of the same molecule?
**A.** The value was “reversed the profound bronchoconstriction”.

Reference: patent publication US5873359A, “Methods and devices for treating pulmonary vasoconstriction and asthma” (The General Hospital Corporation, priority 1994, dated 1999)
